Source: the supplement of paper PMC10307832

How the values were obtained:
Test in all cases: relative viability (nuclei count vs DMSO), 5 days (fraction); higher = more cells survive
[1] = compound: CCn1c(-c2nonc2N)nc2cnc(Oc3cccc(NC(=O)c4ccc(OCCN5CCOCC5)cc4)c3)cc21 + Cc1cc(Nc2cc(N3CCN(C)CC3)nc(Sc3ccc(NC(=O)C4CC4)cc3)n2)n[nH]1 [Tozasertib] (partner 0.1 µM)
Summary of the method: (§1)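 Values are medians from duplicate plates. Each reflects relative viability, defined as the nuclei count of treated wells over that of vehicle wells. Lung cancer cell lines in 1536-well plates were pin-tool dosed one day after seeding with one drug alone or with a fixed anchor-drug dose plus five library-drug doses (not always all listed) in √10 steps, then fixed, stained and imaged at 4× after 5 days.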

[2] = compound: CCC1=CN=CN=C1N2CCN(CC2)CC3=NC4=C(N3)C=C(C=C4)C(F)(F)F + COc1cccc2cc(-c3nc([C@H]4CC[C@H](C(=O)O)CC4)n4ncnc(N)c34)[nH]c12 [OSI-027] (partner 0.5 µM)
Summary of the method: as §1

Mirin + Crizotinib = compound: N=C1NC(=O)/C(=C/c2ccc(O)cc2)S1 [Mirin] + C[C@@H](Oc1cc(-c2cnn(C3CCNCC3)c2)cnc1N)c1c(Cl)ccc(F)c1Cl [Crizotinib] (partner 1 µM)
Summary of the method: as §1

Mirin + Vorinostat = compound: N=C1NC(=O)/C(=C/c2ccc(O)cc2)S1 [Mirin] + O=C(CCCCCCC(=O)Nc1ccccc1)NO [Vorinostat] (partner 1 µM)
Summary of the method: as §1

Row | Cell Line | relative viability ([1]; first compound 0.04 µM) | relative viability ([1]; first compound 0.1265 µM) | relative viability ([1]; first compound 0.4 µM) | relative viability ([1]; first compound 1.265 µM) | relative viability ([1]; first compound 4 µM) | relative viability ([2]; first compound 0.04 µM) | relative viability ([2]; first compound 0.1265 µM) | relative viability ([2]; first compound 0.4 µM) | relative viability ([2]; first compound 1.265 µM) | relative viability ([2]; first compound 4 µM) | relative viability (Mirin + Crizotinib; first compound 0.25 µM) | relative viability (Mirin + Crizotinib; first compound 0.7906 µM) | relative viability (Mirin + Crizotinib; first compound 2.5 µM) | relative viability (Mirin + Crizotinib; first compound 25 µM) | relative viability (Mirin + Vorinostat; first compound 0.25 µM) | relative viability (Mirin + Vorinostat; first compound 0.7906 µM) | relative viability (Mirin + Vorinostat; first compound 2.5 µM) | relative viability (Mirin + Vorinostat; first compound 7.906 µM) | relative viability (Mirin + Vorinostat; first compound 25 µM) | relative viability (Mirin + Crizotinib; first compound 7.906 µM)
1 | LC-2-ad | 0.517 | 0.365 | 0.418 | 0.294 | 0.328 | 0.826 | 0.908 | 0.913 | 0.69 | 0.791 | 0.493 | 0.518 | 0.466 | 0.254 | 0.641 | 0.7 | 0.713 | 0.624 | 0.679 | 
2 | NCI-H1666 | 0.65 | 0.675 | 0.582 | 0.368 | 0.326 | 0.736 | 0.81 | 0.816 | 0.803 | 0.873 | 0.918 | 1.02 | 1.03 | 0.66 | 1.01 | 1.23 | 1.01 | 0.928 | 0.938 | 0.852
3 | 201T | 1.02 | 0.937 | 0.958 | 0.919 | 1.01 | 0.737 | 0.752 | 0.748 | 0.664 | 0.747 | 0.936 | 1.09 | 0.995 | 1.22 | 1.02 | 1.14 | 0.956 | 1.07 | 1.18 | 1.16
4 | NCI-H2009 | 0.745 | 0.635 | 0.53 | 0.331 | 0.275 | 0.591 | 0.68 | 0.589 | 0.502 | 0.591 | 1.08 | 1.11 | 1.01 | 1.16 | 0.716 | 0.875 | 0.738 | 0.673 | 0.784 | 0.853
5 | NCI-H23 | 0.364 | 0.34 | 0.333 | 0.291 | 0.322 | 0.603 | 0.65 | 0.641 | 0.58 | 0.551 | 0.403 |  | 0.469 | 0.337 | 0.624 |  | 0.565 | 0.54 | 0.601 | 0.451
6 | LU99A | 0.293 | 0.295 | 0.295 | 0.233 | 0.199 | 0.287 | 0.281 | 0.316 | 0.283 | 0.289 | 0.526 | 0.463 | 0.499 | 0.37 | 0.44 | 0.44 | 0.474 | 0.457 | 0.33 | 0.499
7 | NCI-H1437 | 0.432 | 0.382 | 0.383 | 0.315 | 0.314 | 0.857 | 0.847 | 0.777 | 0.667 | 0.749 | 0.9 | 0.936 | 0.744 | 0.774 | 0.88 | 0.955 | 0.875 | 0.896 | 1.02 | 0.898
8 | EKVX | 0.423 | 0.473 | 0.46 | 0.216 | 0.265 | 0.615 | 0.73 | 0.705 |  | 0.717 | 0.839 | 0.811 | 1.1 | 1.1 | 0.784 |  | 0.785 | 0.935 | 0.799 | 0.947
9 | ABC-1 | 0.137 | 0.153 | 0.156 | 0.209 | 0.176 | 0.492 | 0.416 | 0.351 | 0.507 | 0.555 | 0.993 | 1.09 | 0.866 | 0.664 | 1.29 | 1.12 | 1.36 | 0.871 | 0.772 | 0.918
